From patent US10308631B2, “Selective anti-cancer compounds” (NATIONAL UNIVERSITY OF SINGAPORE, priority 2015, dated 2019)

Experiments:
[1] = test system: normal cell lines (panel of five); experiment: MTT growth inhibition, mean over normal cell line panel; format: cell-based; conditions: Homo sapiens, 72 h
Method: FIG. 7 is a graphical representation showing that Compound 1 (a131) induces selective cell growth inhibitory effects in a broad spectrum of human cancer cells. A panel of cancer and normal cell lines were treated with Compound 1 (a131) for 72 h and a mean G150 value (the concentration required to achieve 50% growth inhibition) was determined. A Student's t-test indicated a statistically significant difference at p<0.05 (p=0.017) between normal cells and cancer cells treated with Compound 1 (a131). […]
The MTT assay was performed by adding thiazolyl blue tetrazolium bromide (MTT reagent, Invitrogen) at a concentration of 0.5 mg/mL to each cell culture and the resulting mixture incubated for 4 h at 37° C. […] The absorbance of each well at 540 nm and 660 nm was measured using a microplate reader (Benchmark plus, BIO-RAD). The optical density (OD) values were calculated by subtracting the absorbance at 660 nm from the absorbance at 540 nm. […]

HeLa cells = experiment: Soft agar colony formation assay (anchorage-independent growth); format: cell-based, human; conditions: sub-micromolar concentrations, seven days
Method: FIG. 8 is a histogram showing that Compound 1 (a131) potently suppresses anchorage-independent growth of cancer cells. HeLa cells were suspended in 2 mL of soft agar at the final concentration of 0.4%, and were then placed on the top of 2 mL layer of 1% agar in 6-well plates, in triplicate. Subsequently, Compound 1 (a131) was added to the plates at concentrations of 0, 0.15, 0.3, 0.6, 1.25. 2.5 and 5 μM. Seven (7) days after the addition of Compound 1 (a131) to soft agar cultures, the number of colonies per plate were counted in an unbiased manner using automated MATLAB software. The average number of colonies from triplicates was plotted with standard deviations.
Soft agar colony formation assays are known to better mimic the features of in vivo tumours growing in three dimensions than cancer cell lines growing in an in vitro tissue culture. Therefore, the anti-proliferative effects of Compound 1 on cancer cells growing anchorage-independently in soft agar were studied too.
HeLa cells as cultured in Biology Example 1 (1×10^4 cells/well) were suspended in 2 mL of soft agar at a final concentration of 0.4%. […] Seven days after the addition of Compound 1, the number of colonies per plate was counted in an unbiased manner using MATLAB software.

[2] = test system: non-transformed BJ cells depleted of p53 by shRNA-mediated knockdown; experiment: BrdU incorporation and FACS analysis (cell cycle arrest), p53 knockdown; format: cell-based, human; conditions: 2.5 and 5 μM, 24 h
Method: (§1) A: is output from a FACS analysis of isogenic-non-transformed, without (panels a-c) (WT) or with (panels d-f) shRNA-mediated knockdown of p53 (p53KD), and oncogene-transformed BJ cells (panels g-i), each treated with 0, 5 or 2.5 μM Compound 1 (a131) for 24 h. Cells were doubly stained with PI (horizontal axis) and BrdU (vertical axis). The BrdU-positive population in panels a-c are indicated as arrows. B: is a diagrammatic representation of an immunoblot analysis showing isogenic non-transformed (normal) and oncogene-transformed BJ cells (transformed) treated with Compound 1 (a131) at 0, 2.5 or 5 μM for 24 h or 48 h. Cells were harvested and total lysates were analysed by detecting p53 and p21. Antibodies raised against β-actin were used as an internal loading control. C and D are histograms showing the percentage of bromodeoxyuracil (BrdU)-positive non-transformed (normal) BJ cells. C: Cells were treated with Group 1 Compound 1 (a131) at 2.5 and 5 μM, Compound 23 (b36) at 2.5 and 5 μM, and Compound 21 (b35) at 5 μM, and Group 2 Compound 25 (a166) at 2.5 and 5 μM, for 24 h. Cells were doubly stained with propidium iodide (PI) and BrdU, and subjected to FACS analysis. The BrdU-positive population are plotted as bars. […]

[3] = test system: p53 and p21 in non-transformed BJ cells; experiment: Immunoblot analysis of p53 and p21; format: cell-based, human; conditions: 2.5 and 5 μM, 24 h or 48 h
Method: as §1

[4] = test system: p53 and p21 in oncogene-transformed BJ cells; experiment: Immunoblot analysis of p53 and p21; format: cell-based, human; conditions: 2.5 and 5 μM, 24 h or 48 h
Method: as §1

SMILES: N#C/C(=C\c1cccc2cnccc12)c1c[nH]c2ccccc12 [Compound 1, (Z)-2-(1H-indol-3-yl)-3-(isoquinolin-5-yl)acrylonitrile]
- GI50 [1]: 6.5 µM
- reduction of HeLa cell colonies grown in soft agar (HeLa cells): greater than 50%
- cell cycle arrest in p53-depleted cells [2]: ability of Compound 1 to induce cell cycle arrest was compromised
- protein levels of p53 and p21 [3]: increased protein levels of p53
- protein expression levels of p53 and p21 [4]: did not alter the protein expression levels of p53 and p21
